The source of these data is paper PMC8424644, “Thermodynamic Stability and Speciation of Ga(III) and Zr(IV) Complexes with High-Denticity Hydroxamate Chelators” (Inorganic Chemistry, 2021).

Some results are limits rather than exact numbers.

Common to all, as to assay type: physicochemical
The nature of series [1]: pGa calculation (ligand sequestering ability). The conditions noted are these: pGa = −log[Ga(III)free], pH 7.4, cL = 10 μM, cGa(III) = 1 μM. The source says: (§1) Despite a large variety of PET chelators synthesized and tested in order to provide strong coordination of Ga(III) and Zr(IV) in vivo, until now it is has been hard to avoid the release of these metal ions in the body. Here we report two new Ga(III) and Zr(IV) hydroxamate chelators, designed to achieve an efficient sequestering of these metal ions but also to understand how the cyclization and the introduction of an additional hydroxamate group influences the stability of Zr(IV) complexes. Therefore, it is important to evaluate and compare the Ga(III)- and Zr(IV)-sequestering abilities of H3L1 and H4L2 with those of other chelators. However, the direct comparison of the stability constants of metal complexes is not straightforward, and other tools taking into account all the physicochemical properties of the ligands, i.e. their denticity, coordination modes, and acid–base properties, should be used.[52] In order to reliably compare the chelating abilities of H3L1 and H4L2 toward Ga(III) and Zr(IV) ions, the pM values were calculated. pFe was originally introduced by Raymond for the comparison of iron-siderophore systems;[53] pGa = −log[Ga(III)free] and pZr = −log[Zr(IV)free] were calculated at pH 7.4 with cL = 10 μM and cGa(III)/Zr(IV) = 1 μM (Table 2).

The nature of series [2]: pZr calculation (ligand sequestering ability). The conditions noted are these: for pZr: pZr = −log[Zr(IV)free], pH 7.4, cL = 10 μM, cZr(IV) = 1 μM.
Source text: as §1

A short description of series [3]: Fe(III)-L + Zr(IV)-NTA metal–metal competition UV–vis titrations. The note with it: log β[ZrL2] vs log β[ZrL1].

Regarding `N[C@H]1CCCCNC(=O)CCCN(O)C(=O)CCCNC(=O)CCCN(O)C(=O)CCCNC(=O)CCCN(O)C(=O)CCCNC(=O)CCCN(O)C(=O)CCCNC1=O` [H4L2, (S)-43-Amino-6,16,26,36-tetrahydroxy-1,6,11,16,21,26,31,36,41-nonaazacycloheptatetracontane-2,7,12,17,22,27,32,37,42-nonaone], in series [1], the pGa is reported as 22.3. Moreover, in series [2], the “pZr higher than the values for Zr(IV)-DFOB and Zr(IV)-H3L1” value is reported as above 4 units; the pZr is listed as 37.0. Moreover, the “increase in log β of the Zr(IV) complex with respect to Zr(IV)-H3L1” value in series [3] is on record as 8.5 orders of magnitude.
Regarding `O=C1CCCN(O)C(=O)CCCNC(=O)CCCN(O)C(=O)CCCNC(=O)CCCN(O)C(=O)CCCN1` [H3L1, 1,11,21-Trihydroxy-1,6,11,16,21,26-hexaazacyclotriacontane-2,7,12,17,22,27-hexaone], in series [1], the pGa is given as 22.5. In addition, the pZr in series [2] is recorded as 32.4.
